Experiments:
Saccharomyces cerevisiae [1] = test: Antifungal activity against Saccharomyces cerevisiae BY4743 assessed as fungal growth inhibition incubated for 24 hrs by plate reader method; assay type: functional, organism-based; conditions: BY4743, 24 h
[2] = Cytotoxicity against HEK293 cells assessed as cell growth inhibition measured after 20 hrs by resazurin dye based assay; assay type: toxicity; conditions: human
Cryptococcus neoformans = test: Antifungal activity against Cryptococcus neoformans ATCC 208821 assessed as fungal growth inhibition incubated for 36 hrs by resazurin dye based analysis; assay type: functional
Klebsiella pneumoniae = test: Antibacterial activity against Klebsiella pneumoniae ATCC 700603 assessed as inhibition of bacterial growth measured after 18 hrs by resazurin dye based analysis; assay type: functional
Staphylococcus aureus = test: Antibacterial activity against methicillin-resistant Staphylococcus aureus ATCC 43300 assessed as inhibition of bacterial growth measured after 18 hrs by resazurin dye based analysis; assay type: functional
Pseudomonas aeruginosa = test: Antibacterial activity against Pseudomonas aeruginosa ATCC 27853 assessed as inhibition of bacterial growth measured after 18 hrs by resazurin dye based analysis; assay type: functional
Candida albicans = test: Antifungal activity against Candida albicans ATCC 90028 assessed as fungal growth inhibition incubated for 36 hrs by resazurin dye based analysis; assay type: functional
Saccharomyces cerevisiae [3] = test: Antifungal activity against Saccharomyces cerevisiae YJM789 assessed as fungal growth inhibition incubated for 24 hrs by plate reader method; assay type: functional, organism-based; conditions: YJM789, 24 h
Escherichia coli [4] = test: Antibacterial activity against Escherichia coli ATCC 25922 assessed as inhibition of bacterial growth measured after 18 hrs by resazurin dye based analysis; assay type: functional
Acinetobacter baumannii = test: Antibacterial activity against Acinetobacter baumannii ATCC 19606 assessed as inhibition of bacterial growth measured after 18 hrs by resazurin dye based analysis; assay type: functional
Escherichia coli [5] = test: Antibiotic adjuvant activity against Escherichia coli ATCC 25922 assessed as erythromycin MIC measured after 18 hrs in presence of erythromycin; assay type: functional
[6] = Selectivity index, ratio of IC50 for HEK293 to MIC for methicillin-resistant Staphylococcus aureus ATCC 43300; assay type: toxicity; conditions: human, HEK293 cells; read-out: Selectivity Index
Saccharomyces cerevisiae [7] = test: Antifungal activity against Saccharomyces cerevisiae PA3-10-3 variant assessed as fungal growth inhibition incubated for 24 hrs by plate reader method; assay type: functional, organism-based

| SMILES | IC50 (Saccharomyces cerevisiae [1]) [µM] | IC50 at 20 h [2] [µM] | MIC (Cryptococcus neoformans) [µM] | MIC (Klebsiella pneumoniae) [µM] | MIC (Staphylococcus aureus) [µM] | MIC (Pseudomonas aeruginosa) [µM] | MIC (Candida albicans) [µM] | IC50 (Saccharomyces cerevisiae [3]) [µM] | MIC (Escherichia coli [4]) [µM] | MIC (Acinetobacter baumannii) [µM] | MIC (Escherichia coli [5]) [µM] | selectivity ratio [6] | IC50 (Saccharomyces cerevisiae [7]) [µM] |
| --- | --- | --- | --- | --- | --- | --- | --- | --- | --- | --- | --- | --- | --- |
| C[C@@]12CCC[C@](C)(C(=O)O)[C@H]1CCc1ccc(OC(=O)CCCNCCCCCCNCCCNC(=O)Oc3ccc4c(c3)[C@@]3(C)CCC[C@](C)(C(=O)O)[C@@H]3CC4)cc12.O=C(O)C(F)(F)F.O=C(O)C(F)(F)F | 3.59 | > 30.2 | 30.2 | > 30.2 | 30.2 | > 30.2 | 30.2 | 14.3 | > 30.2 | > 30.2 | – | – | – |
| C[C@]1(C(=O)NCCCNCCCCNCCCNC(=O)[C@@]2(C)CCC[C@]3(C)c4cc(O)ccc4CC[C@@H]23)CCC[C@]2(C)c3cc(O)ccc3CC[C@@H]12.O=C(O)C(F)(F)F.O=C(O)C(F)(F)F | – | > 33.9 | 17 | > 33.9 | ≤ 0.26 | > 33.9 | > 33.9 | – | > 33.9 | > 33.9 | 26.5 | > 130 | – |
| C[C@]1(C(=O)O)CCC[C@]2(C)c3cc(OC(=O)CCCNCCCCCCCCCCNCCCNC(=O)Oc4ccc5c(c4)[C@@]4(C)CCC[C@](C)(C(=O)O)[C@@H]4CC5)ccc3CC[C@@H]12.O=C(O)C(F)(F)F.O=C(O)C(F)(F)F | 3.59 | > 28.7 | 7.17 | > 28.7 | > 28.7 | > 28.7 | > 28.7 | 14.3 | > 28.7 | > 28.7 | – | – | > 25 |
| C[C@]1(C(=O)NCCCNCCCCCCCCCCCCN)CCC[C@]2(C)c3cc(O)ccc3CC[C@@H]12.O=C(O)C(F)(F)F.O=C(O)C(F)(F)F | – | 26.2 | 43.1 | > 43.1 | 5.4 | > 43.1 | 43.1 | – | 43.1 | 43.1 | – | 4.9 | – |

Source: ChEMBL document CHEMBL5143685, “Valorisation of the diterpene podocarpic acid - Antibiotic and antibiotic enhancing activities of polyamine conjugates” (Bioorg Med Chem, 2022)
